# Laboratory results published in paper doi:10.1101/2023.04.17.537234, “A biophysical rationale for the selective inhibition of PTP1B over TCPTP by nonpolar terpenoids” (bioRxiv, 2023).
# What was measured:
# Solubility = format: physicochemical
# PTP1B [1] = conditions: PTP1B over TCPTP; cited from earlier work
# TCPTP = assay: pNPP enzyme kinetics, inhibition by amorphadiene; format: biochemical, H. Sapiens
# Description: (§1) We overexpressed all proteins examined in this study in BL21(DE3) cells by carrying out steps described previously: (i) We used Gibson assembly to introduce mutations for PTP1B or TCPTP encoded by a pET16b vector and transformed sequence-confirmed plasmids into BL21(DE3) cells. (ii) We used an individual colony from each transformation to inoculate 20 mL of LB media, which we incubated at 37°C in an incubator-shaker (225 rpm) for 6 hours, prior to inoculating 1 L of rich induction media (20 g tryptone, 10 g yeast extract, 5 g sodium chloride, 50 μg/mL carbenicillin, 72 mL 5X M9 salts solution, 20 mL of 20% glucose solution). (iii) We grew the resulting inoculum at 37°C and 225 rpm. (iv) At an OD600 of 0.5–0.8, we added 500 μM IPTG to induce protein expression and incubated the induced flasks at 22°C and 225 rpm for 18–20 hours. (v) We pelleted the final culture (5000 rpm for 10 minutes in a Beckman J2-HS floor centrifuge), disposed of the supernatants, and stored the cell pellets at −80°C freezer for future purification. We purified PTP variants with fast protein liquid chromatography (FPLC) using previously described protocols. In brief, we lysed cells with chemical lysis buffer (for each gram of cell pellet, we used 4 mL of 20 mM tris base, 50 mM sodium chloride, 1% Triton X-100, and pH 7.5 supplemented with 2 mg MgSO4–7H2O, 2 mg TAME, 0.5 mL TCEP (0.5 mM), 3.75 μL PMSF solution, 1 mg lysozyme, and 30 U DNase), removed protein debris with saturated ammonium sulfate (20% for PTP1B variants and 10% TCPTP variants, respectively), and extracted the supernatant. We purified PTPs by using nickel affinity chromatography (HisTrap HP with 50 mM Tris-HCl, 300 mM sodium chloride, and 0.5 mM TCEP at pH 7.5 with and without 500 mM imidazole) followed by anion exchange chromatography (HiTrap HP 5 mL with 50 mM HEPES, and 0.5 mM TCEP at pH 7.5 with and without 1 M NaCl). We concentrated final protein fractions into NaCl-free anion exchange buffer ([…], Sartorius) and stored them in 20% glycerol at −80°C.
# (§2) We characterized the activity of PTP variants on p-nitrophenyl phosphate (pNPP). In brief, we used 96-well plates to prepare 200-μL reactions with 50 nM enzyme, 50 μg/mL BSA, and varying amorphadiene concentrations (0.5 – 500 μM) in 50 mM HEPES buffer (pH = 7.3) with 10% DMSO. We used 20 mM substrate to initialize the reactions and monitored the formation of p-nitrophenol (pNP) by measuring absorbance at 405 nm at 30-s intervals over 8 minutes (SpectraMax iD3 plate reader). We used standard curves to convert absorbance measurements to product concentrations and used the slopes of the initial rate regime for Vo.
# PTP1B [2] = assay: pNPP enzyme kinetics, inhibition by amorphadiene; format: biochemical, H. Sapiens
# Description: as §1, §2
solubility (Solubility),Structure (SMILES),selectivity: inhibits PTP1B more potently than TCPTP (PTP1B [1]),"IC50 of AD, mutant vs wild-type (TCPTP; TCPTP K280M)","IC50 of AD, mutant vs wild-type (TCPTP; TCPTP L158F vs wild-type)","IC50 of AD, mutant vs wild-type (TCPTP; TCPTP R288Q)","IC50 of AD, mutant vs wild-type (PTP1B [2]; PTP1B L158F vs wild-type)","IC50 of AD, mutant vs wild-type (PTP1B [2]; PTP1B M282K)","IC50 of AD, mutant vs wild-type (PTP1B [2]; PTP1B Q290R)"
low solubility,"CC(C)=CCC=C(C)C1CC=C(C)CC1 (stereo not drawn) [AB, α-bisabolene]",5–7 X,–,–,–,–,–,–
–,"CCc1oc2cc(S(=O)(=O)Nc3ccc(S(=O)(=O)Nc4nccs4)cc3)ccc2c1C(=O)c1cc(Br)c(O)c(Br)c1 [BBR, 3-(3,5-Dibromo-4-hydroxy-benzoyl)-2-ethyl-benzofuran-6-sulfonic-acid-(4-(thiazol-2-ylsulfamyl)-phenyl)-amide, reference compound]",5–6 X,–,–,–,–,–,–
–,"C=C(C)[C@@H]1CC[C@@H](C)[C@@H]2CCC(C)=C[C@@H]21 [AD, amorphadiene]",5–7 X,no effect on IC50,indistinguishable,no effect on IC50,indistinguishable,reduced potency,reduced potency
